Data published in patent US20180303817A1, “THERAPEUTIC AGENT FOR BREAST CANCER” (Eisai R&D Management Co., Ltd., priority 2015, published 2018).

Columns and labels:
[1] = tested on: human-derived breast cancer cell line MFM223; experiment: Anti-tumor effect of compound A in nude mice with subcutaneously transplanted human breast cancer cell line MFM223 (tumor volume); assay type: in vivo, nude mice (BALB/cAJcl-nu/nu, female)
Experimental: (§1) Four nude mice (BALB/cAJcl-nu/nu, female, CLEA Japan, Inc.) per group were used to evaluate an anti-tumor effect when compound A was administered.
A human-derived breast cancer cell line MFM223 (ECACC) was subjected to preparatory conditioning. The MFM223 cells were suspended at a concentration of 2×10^8 cells/mL in HBSS (Wako Pure Chemical Industries, Ltd.). To the resulting suspension was added an equal volume of Matrigel™ matrix (Becton, Dickinson and Company, Japan), and the mixture was mixed sufficiently. Then, 0.1 mL of the mixture was subcutaneously transplanted into the right flank of each nude mouse (CAnN.Cg-Foxnlnu/Crlalj, female, Charles River Laboratories International, Inc.). During rearing, β-estradiol (Wako Pure Chemical Industries, Ltd.) prepared at a final concentration of 2.5 μg/mL in drinking water was orally administered. 46 Days after the transplantation, a tumor formed was resected and cut into small pieces. HBSS containing Type I collagenase (SIGMA) at a final concentration of 380 units/mL and Deoxyribonuclease I (SIGMA) at a final concentration of 160 K units/mL was added thereto, and the mixture was stirred at 37° C. After the mixture was made to pass through a 100-μm cell strainer (Falcon®) and centrifuged to collect the cells, those cells were cultured in 10% bovine serum-containing EMEM culture medium.
The cells as so obtained were suspended at a concentration of 1.4×10^8 cells/mL in 10% bovine serum-containing EMEM culture medium (Wako Pure Chemical Industries, Ltd.). To the resulting suspension was added an equal volume of Matrigel™ matrix (Becton, Dickinson and Company, Japan), and the resulting mixture was mixed sufficiently. Next, 0.1 mL of the mixture was subcutaneously transplanted into the right flank of each mouse, and then, the anti-tumor effect was evaluated.
20 Days after the transplantation, an electronic digital caliper (Digimatic™ Caliper; Mitutoyo Corporation) was used to measure the long and short diameters of a tumor of interest. The mice were grouped such that each group had substantially the same average of the tumor volumes. Note that each tumor volume was calculated by using the following equation:
Tumor Volume (mm^3)=Long Diameter (mm)×Short Diameter (mm)×Short Diameter (mm)/2.
(§2) Compound A as obtained in Production Example 1 was dissolved at a concentration of 0.625 mg/mL, or 2.5 mg/mL in purified water.
(§3) Then, the solution was orally administered at a dose of 20 mL/kg, i.e., 12.5 mg/kg or 50 mg/kg, once a day for 12 days to the mice of each group. Purified water was administered at 20 mL/kg to the control group.
(§4) On day 3, 7, and 12 after initiation of the administration, the tumor volume of each mouse was measured. In addition, Table 2 and FIG. 2 show changes in body weight over time.

[2] = Changes in body weight over time in MFM223 tumor-bearing nude mice; assay type: in vivo, nude mice (BALB/cAJcl-nu/nu, female)
Experimental: as §1, §2, §3, §4

[3] = 12.5 mg/kg orally once a day, Day 3
[4] = 12.5 mg/kg orally once a day, Day 7
[5] = 12.5 mg/kg orally once a day, Day 12
[6] = 50 mg/kg orally once a day, Day 3
[7] = 50 mg/kg orally once a day, Day 7
[8] = 50 mg/kg orally once a day, Day 12

SMILES: CNC(=O)n1ccc2cc(Oc3ccnc(NC(=O)c4ccc(C5CCN(CCO)CC5)cc4)c3)c(OCCOC)cc21 [Compound A, 5-((2-(4-(1-(2-hydroxyethyl)piperidin-4-yl)benzamide)pyridin-4-yl)oxy)-6-(2-methoxyethoxy)-N-methyl-1H-indole-1-carboxamide 1.5 succinate]
- Changes in tumor volume over time ([1]; 12.5 mg/kg orally once a day, Day 0 (at grouping, before treatment effect)): 151.6 mm^3
- Changes in tumor volume over time [1, 3]: 139.0 mm^3
- Changes in tumor volume over time [1, 4]: 143.8 mm^3
- Changes in tumor volume over time [1, 5]: 148.2 mm^3
- Changes in tumor volume over time ([1]; 50 mg/kg orally once a day, Day 0 (at grouping, before treatment effect)): 151.6 mm^3
- Changes in tumor volume over time [1, 6]: 112.8 mm^3
- Changes in tumor volume over time [1, 7]: 99.3 mm^3
- Changes in tumor volume over time [1, 8]: 87.2 mm^3
- Changes in body weight over time ([2]; 12.5 mg/kg orally once a day, Day 0): 21.1 g
- Changes in body weight over time [2, 3]: 21.4 g
- Changes in body weight over time [2, 4]: 22.6 g
- Changes in body weight over time [2, 5]: 23.2 g
- Changes in body weight over time ([2]; 50 mg/kg orally once a day, Day 0): 21.5 g
- Changes in body weight over time [2, 6]: 22.8 g
- Changes in body weight over time [2, 7]: 23.8 g
- Changes in body weight over time [2, 8]: 24.0 g
